# Experimental data reported in US9120761B2, “Selective FAK inhibitors” (priority 2011, dated 2015).
# Read-outs that look alike come from different tables or passages of the source.
# Tests used:
# [1] = biological target: VEGFR3 cytoplasmic domain (Homo sapiens, UniProt P35916, DEL949-1002); assay: VEGFR3 biochemical assay (Alpha Screen); conditions: modified form (*): N-terminal Hexa-His-fusion protein, amino acids 818-1177 lacking 949-1002
# [2] = test system: MDA-231-LNA cells; assay: 2D cellular proliferation assay; format: cell-based; conditions: 72 h, 3 days incubation, resazurin
# [3] = biological target: FAK enzyme (catalytic domain, amino acids 411-686) (Homo sapiens (Human), UniProt Q05397); assay: FAK biochemical Alpha Screen assay; conditions: 80 μM ATP
# [4] = biological target: N-terminally GST-fused purified FAK enzyme (Homo sapiens (Human), UniProt Q05397); assay: FAK Biacore SPR assay; format: binding
# Protocol: Binding parameters of compounds were determined using a Biacore™ S51 sensor. An anti-GST antibody was immobilized onto a CM5 chip by primary amine-coupling in accordance with the manufacturer's recommendations.
# Concentration series' of the test compounds were injected over the spots at 25° C.
# After the injection cycle of a compound the chip surface was regenerated with 10 mM glycine-HCl, pH2.2 before capturing the enzyme again.
# [5] = biological target: VEGFR3 cytoplasmic domain (Homo sapiens, UniProt P35916); assay: VEGFR3 biochemical assay (Alpha Screen); conditions: N-terminal GST-fusion protein (amino acids 798-1298), 500 μM ATP
# [6] = test system: MDA-231-LNA tumours; assay: Combination study efficacy and tolerability with dasatinib, IMFP MDA-231-LNA tumours; format: in vivo; conditions: Compound 3 40 mg/kg p.o. BID, dasatinib 30 mg/kg p.o. BID; Balb/c SCID mice, MDA-231-LNA primary tumour
# Protocol: Treatment commenced when tumours were palpable (day 9 post cell injection) and continued for the duration of the experiment. The formulations used were the same as those above, with the vehicle (I-IPMC-SV, 0.2 ml), being administered as a control.
# As additional markers of potential hepatotoxicity, liver weight at harvest as well as alanine aminotransferase (ALT) and aspartate transaminase (AST) levels were determined in plasma 12 hours after the final dose of drug.
# [7] = test system: taxane-sensitive (SKOV3ip1 and HeyA8) and taxane-resistant (HeyA8-MDR) ovarian cancer cell lines; conditions: cited from earlier work
# [8] = biological target: FAK (Homo sapiens (Human), UniProt Q05397); conditions: in vitro; cited from earlier work
# [9] = test system: HeyA8, SKOV3ip1, and HeyA8-MDR models; conditions: cited from earlier work
# Sequence of VEGFR3 cytoplasmic domain (Homo sapiens, UniProt P35916, DEL949-1002) (P35916 with tags, fused parts or gaps DEL949-1002 limits assumed): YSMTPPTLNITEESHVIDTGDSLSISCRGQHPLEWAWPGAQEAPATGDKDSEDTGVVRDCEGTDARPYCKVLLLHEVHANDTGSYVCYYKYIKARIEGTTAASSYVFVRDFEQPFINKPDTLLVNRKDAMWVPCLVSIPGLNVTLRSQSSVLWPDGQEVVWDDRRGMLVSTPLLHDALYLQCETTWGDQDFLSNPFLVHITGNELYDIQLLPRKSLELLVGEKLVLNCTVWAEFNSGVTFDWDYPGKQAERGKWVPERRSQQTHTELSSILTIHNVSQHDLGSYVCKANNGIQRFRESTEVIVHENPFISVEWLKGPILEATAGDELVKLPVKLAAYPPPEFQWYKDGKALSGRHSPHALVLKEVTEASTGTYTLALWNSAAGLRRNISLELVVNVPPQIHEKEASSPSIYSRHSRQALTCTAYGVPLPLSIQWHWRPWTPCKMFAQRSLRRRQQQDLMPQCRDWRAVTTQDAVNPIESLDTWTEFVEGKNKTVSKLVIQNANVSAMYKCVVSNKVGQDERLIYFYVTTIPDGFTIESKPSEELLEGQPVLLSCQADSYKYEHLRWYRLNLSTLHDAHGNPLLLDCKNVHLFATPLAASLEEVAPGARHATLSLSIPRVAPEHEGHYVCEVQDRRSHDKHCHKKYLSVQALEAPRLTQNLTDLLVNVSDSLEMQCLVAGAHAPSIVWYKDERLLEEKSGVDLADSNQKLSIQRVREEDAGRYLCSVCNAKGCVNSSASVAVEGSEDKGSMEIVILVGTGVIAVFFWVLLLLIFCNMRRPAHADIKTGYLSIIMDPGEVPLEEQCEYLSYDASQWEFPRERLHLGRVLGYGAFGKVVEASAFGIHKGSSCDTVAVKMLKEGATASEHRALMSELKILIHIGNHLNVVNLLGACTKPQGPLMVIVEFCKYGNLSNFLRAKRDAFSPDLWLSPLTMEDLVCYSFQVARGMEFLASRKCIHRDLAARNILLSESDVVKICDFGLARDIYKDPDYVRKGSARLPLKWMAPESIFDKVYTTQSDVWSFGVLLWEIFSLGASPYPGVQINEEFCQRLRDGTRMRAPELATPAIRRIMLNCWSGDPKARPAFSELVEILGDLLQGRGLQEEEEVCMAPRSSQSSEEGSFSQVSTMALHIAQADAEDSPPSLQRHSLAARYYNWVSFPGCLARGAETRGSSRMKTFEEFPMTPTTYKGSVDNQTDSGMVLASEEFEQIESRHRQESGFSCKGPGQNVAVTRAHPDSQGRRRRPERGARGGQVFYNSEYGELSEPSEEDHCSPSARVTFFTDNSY
# Sequence of FAK enzyme (catalytic domain, amino acids 411-686) (Q05397 411-686): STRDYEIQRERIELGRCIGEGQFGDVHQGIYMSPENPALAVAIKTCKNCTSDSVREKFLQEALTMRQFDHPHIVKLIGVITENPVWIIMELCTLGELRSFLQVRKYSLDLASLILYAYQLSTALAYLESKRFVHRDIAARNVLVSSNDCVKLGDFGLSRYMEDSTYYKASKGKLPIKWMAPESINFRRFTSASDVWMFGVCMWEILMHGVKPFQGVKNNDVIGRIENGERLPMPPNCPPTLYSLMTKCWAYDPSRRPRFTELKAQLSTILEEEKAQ
# Sequence of N-terminally GST-fused purified FAK enzyme (Q05397 whole entry, the tested form may be a part): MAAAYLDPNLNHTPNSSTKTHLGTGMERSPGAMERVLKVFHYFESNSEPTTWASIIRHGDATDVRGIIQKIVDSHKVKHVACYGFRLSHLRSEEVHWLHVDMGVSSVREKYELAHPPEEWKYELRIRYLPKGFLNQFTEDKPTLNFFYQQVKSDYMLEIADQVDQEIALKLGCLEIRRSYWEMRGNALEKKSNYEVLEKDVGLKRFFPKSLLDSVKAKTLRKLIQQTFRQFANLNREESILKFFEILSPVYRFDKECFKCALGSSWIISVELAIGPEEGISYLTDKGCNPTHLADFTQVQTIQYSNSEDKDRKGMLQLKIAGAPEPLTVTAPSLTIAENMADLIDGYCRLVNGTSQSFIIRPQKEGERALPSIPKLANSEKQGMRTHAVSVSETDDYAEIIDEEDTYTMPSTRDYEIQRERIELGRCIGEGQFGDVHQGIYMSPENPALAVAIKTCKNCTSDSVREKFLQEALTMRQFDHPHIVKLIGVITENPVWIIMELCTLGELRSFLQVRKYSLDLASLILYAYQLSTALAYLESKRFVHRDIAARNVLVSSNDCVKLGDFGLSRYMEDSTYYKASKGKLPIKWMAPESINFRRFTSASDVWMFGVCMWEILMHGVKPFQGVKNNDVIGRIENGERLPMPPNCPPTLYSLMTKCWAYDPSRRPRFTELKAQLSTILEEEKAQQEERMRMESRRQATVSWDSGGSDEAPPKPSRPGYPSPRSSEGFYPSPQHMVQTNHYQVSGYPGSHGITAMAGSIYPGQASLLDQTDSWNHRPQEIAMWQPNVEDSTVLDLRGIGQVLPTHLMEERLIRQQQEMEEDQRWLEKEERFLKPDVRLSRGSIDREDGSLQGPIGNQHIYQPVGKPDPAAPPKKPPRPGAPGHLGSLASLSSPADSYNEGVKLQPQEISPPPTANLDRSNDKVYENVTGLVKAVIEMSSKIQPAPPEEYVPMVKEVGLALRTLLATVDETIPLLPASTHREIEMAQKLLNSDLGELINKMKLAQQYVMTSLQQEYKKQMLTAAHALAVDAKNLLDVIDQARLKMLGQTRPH
# Sequence of VEGFR3 cytoplasmic domain (Homo sapiens, UniProt P35916) (P35916 25-1363 limits assumed): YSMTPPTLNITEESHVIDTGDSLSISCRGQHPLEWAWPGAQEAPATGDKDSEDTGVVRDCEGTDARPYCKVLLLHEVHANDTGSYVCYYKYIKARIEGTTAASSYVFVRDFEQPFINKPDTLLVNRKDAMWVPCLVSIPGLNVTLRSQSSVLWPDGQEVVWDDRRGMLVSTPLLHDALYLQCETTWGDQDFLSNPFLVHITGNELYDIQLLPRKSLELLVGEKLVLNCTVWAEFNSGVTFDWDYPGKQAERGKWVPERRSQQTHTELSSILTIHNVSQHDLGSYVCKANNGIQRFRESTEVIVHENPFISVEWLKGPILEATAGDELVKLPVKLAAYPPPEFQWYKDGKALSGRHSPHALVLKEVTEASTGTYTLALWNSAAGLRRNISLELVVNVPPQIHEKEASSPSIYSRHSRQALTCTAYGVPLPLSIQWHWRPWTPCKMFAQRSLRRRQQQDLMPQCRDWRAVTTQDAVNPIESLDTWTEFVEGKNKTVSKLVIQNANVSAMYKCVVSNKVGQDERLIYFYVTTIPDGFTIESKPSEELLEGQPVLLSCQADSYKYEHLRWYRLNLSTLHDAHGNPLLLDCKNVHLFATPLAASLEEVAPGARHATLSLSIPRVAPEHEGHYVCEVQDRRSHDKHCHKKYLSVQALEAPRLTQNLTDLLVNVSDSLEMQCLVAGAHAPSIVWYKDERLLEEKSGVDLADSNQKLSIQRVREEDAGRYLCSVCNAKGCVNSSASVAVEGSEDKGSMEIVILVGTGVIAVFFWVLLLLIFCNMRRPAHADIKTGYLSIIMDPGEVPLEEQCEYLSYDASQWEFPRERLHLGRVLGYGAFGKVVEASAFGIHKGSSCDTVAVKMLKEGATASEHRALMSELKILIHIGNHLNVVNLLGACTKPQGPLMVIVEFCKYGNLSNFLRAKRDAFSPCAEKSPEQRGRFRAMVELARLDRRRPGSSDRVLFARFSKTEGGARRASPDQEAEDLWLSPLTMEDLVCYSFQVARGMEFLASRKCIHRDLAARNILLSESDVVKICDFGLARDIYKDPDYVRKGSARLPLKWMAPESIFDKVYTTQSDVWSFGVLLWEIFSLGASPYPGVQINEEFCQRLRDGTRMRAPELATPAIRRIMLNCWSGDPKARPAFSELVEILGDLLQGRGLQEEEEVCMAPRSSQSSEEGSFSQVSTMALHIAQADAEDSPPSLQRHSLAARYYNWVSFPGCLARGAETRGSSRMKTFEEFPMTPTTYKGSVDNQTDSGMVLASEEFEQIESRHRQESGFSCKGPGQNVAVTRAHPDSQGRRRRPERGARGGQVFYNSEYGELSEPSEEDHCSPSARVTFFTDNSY
# Sequence of FAK (Q05397 whole entry): as the sequence (Q05397 whole entry, the tested form may be a part) above
Structure (SMILES),IC50 [1] [nM],IC50 [2] [nM],IC50 [3] [nM],"Kd ([4]; Biacore S51, 25° C.) [nM]",IC50 [5] [nM],also measured
"COc1cc(N2CCNCC2)ccc1Nc1ncc(C(F)(F)F)c(CCc2ccccc2CC(N)=O)n1 [Compound 1, 2-(2-(2-(2-((2-Methoxy-4-(piperazin-1-yl)phenyl)amino)-5-(trifluoromethyl)pyrimidin-4-yl)ethyl)phenyl)acetamide]",275,1430,1.9,0.29,–,–
"COc1cc(C2CCNCC2)ccc1Nc1ncc(C(F)(F)F)c(CCc2ccccc2CC(N)=O)n1 [Compound 2, 2-(2-(2-(2-((2-Methoxy-4-(piperidin-4-yl)phenyl)amino)-5-(trifluoromethyl)pyrimidin-4-yl)ethyl)phenyl)acetamide]",3680,2770,7.1,0.74,–,–
"COc1cc(C2CCN(C)CC2)ccc1Nc1ncc(C(F)(F)F)c(CCc2ccccc2CC(N)=O)n1 [Compound 3, 2-(2-(2-(2-((2-Methoxy-4-(1-methylpiperidin-4-yl)phenyl)amino)-5-(trifluoromethyl)pyrimidin-4-yl)ethyl)phenyl)acetamide]",–,6620,2.2,–,538,"TGI based on tumour weight [6]: 42%; Kd ([4]; Biacore S51, measured using an extended washing step of 30 minutes): 0.21 nM"
"CCN1CCC(c2ccc(Nc3ncc(C(F)(F)F)c(CCc4ccccc4CC(N)=O)n3)c(OC)c2)CC1 [Compound 4, 2-(2-(2-(2-((4-(1-Ethylpiperidin-4-yl)-2-methoxyphenyl)amino)-5-(trifluoromethyl)pyrimidin-4-yl)ethyl)phenyl) acetamide]",–,1910,3.6,1.5,–,–
"COc1cc(C2CCNCC2)ccc1Nc1ncc(C(F)(F)F)c(CCc2cccc(C(N)=O)c2)n1 [Compound 5, 3-(2-(2-((2-Methoxy-4-(piperidin-4-yl)phenyl)amino)-5-(trifluoromethyl)pyrimidin-4-yl)ethyl)benzamide]",5750,3060,7.2,–,–,–
"COc1cc(C2CCN(C)CC2)ccc1Nc1ncc(C(F)(F)F)c(CCc2cccc(C(N)=O)c2)n1 [Compound 6, 3-(2-(2-((2-Methoxy-4-(1-methylpiperidin-4-yl)phenyl)amino)-5-(trifluoromethyl)pyrimidin-4-yl)ethyl)benzamide]",–,2240,2.1,2.9,10400,–
CCN1CCC(c2ccc(Nc3ncc(C(F)(F)F)c(CCc4cccc(C(N)=O)c4)n3)c(OC)c2)CC1 [Compound 7],13300,4930,9.4,–,–,–
"CCc1cc(C2CCNCC2)ccc1Nc1ncc(C(F)(F)F)c(CCc2ccccc2CC(N)=O)n1 [Compound 8, 2-(2-(2-(2-((2-Ethyl-4-(piperidin-4-yl)phenyl)amino)-5-(trifluoromethyl)pyrimidin-4-yl)ethyl)phenyl)acetamide]",–,2480,–,–,1180,–
"CCc1cc(C2CCN(C)CC2)ccc1Nc1ncc(C(F)(F)F)c(CCc2ccccc2CC(N)=O)n1 [Compound 9, 2-(2-(2-(2-((2-Ethyl-4-(1-methylpiperidin-4-yl)phenyl)amino)-5-(trifluoromethyl)pyrimidin-4-yl)ethyl)phenyl)acetamide]",–,2900,–,–,–,–
"NC(=O)Cc1ccccc1CCc1nc(Nc2ccc(C3CCNCC3)cc2OC(F)(F)F)ncc1C(F)(F)F [Compound 10, 2-(2-(2-(2-((4-(Piperidin-4-yl)-2-(trifluoromethoxy)phenyl)amino)-5-(trifluoromethyl)pyrimidin-4-yl)ethyl)phenyl)acetamide]",–,1690,2.7,0.79,> 66000,–
"CN1CCC(c2ccc(Nc3ncc(C(F)(F)F)c(CCc4ccccc4CC(N)=O)n3)c(OC(F)(F)F)c2)CC1 [Compound 11, 2-(2-(2-(2-((4-(1-Methylpiperidin-4-yl)-2-(trifluoromethoxy)phenyl)amino)-5-(trifluoromethyl)pyrimidin-4-yl)ethyl)phenyl)acetamide]",–,2580,2.2,1.7,59800,–
"CN1CCC(c2ccc(Nc3ncc(C(F)(F)F)c(CCc4ccccc4CC(N)=O)n3)c(F)c2)CC1 [Compound 13, 2-(2-(2-(2-((2-Fluoro-4-(1-methylpiperidin-4-yl)phenyl)amino)-5-(trifluoromethyl)pyrimidin-4-yl)ethyl)phenyl)acetamide]",–,2760,5.6,–,205,–
CNC(=O)c1ccccc1Nc1nc(Nc2ccc(N3CCOCC3)cc2OC)ncc1Cl [TAE226],–,–,–,–,–,cell growth ([7]; in vitro): inhibited cell growth in a time- and dose-dependent manner; enhancement of docetaxel-mediated growth inhibition ([7]; taxane-resistant cell lines): 20 fold; enhancement of docetaxel-mediated growth inhibition ([7]; taxane-sensitive cell lines): 10 fold; phosphorylation of FAK at Y397 and Y861 sites [8]: inhibited; reduction of tumour burden compared with vehicle-treated controls [9]: 46-64%
